Experimental data taken from patent US4963589A, “Methods for treating Giardia lamblia” (The University of North Carolina at Chapel Hill, priority 1988, dated 1990).
Counter-ions that a name gives are not always drawn. Like-named read-outs stand apart in the source and are kept apart here. One block for each compound: values may come before it.

Columns and labels:
[1] = test system: Giardia lamblia trophozoites, WB strain (ATCC #30957); assay: 3H-thymidine incorporation drug sensitivity assay, Giardia lamblia WB strain (ATCC 30957); assay type: cell-based; details: for IC50: Giardia duodenalis; for efficacy against Giardia lamblia (in words): qualitative statements on the results
Method: Giardia lamblia trophozoites were obtained from logarithmically growing stock cultures. Into the wells of a 96 well U-bottom tissue culture plate (Costar) was placed 100 μl of modified TYI-S-33 medium containing 2.5×10^4 trophozoites. The tissue culture plate was maintained in an anerobic environment by placing it inside a plastic box modified to allow nitrogen to be passed through the box via inlet and outlet tubing which could be clamped shut. Nitrogen was passed through the box for 2 minutes and the container was placed in a 37° C. incubator gassed with 5% CO2 in air.
Varying concentrations of ^3 H-thymidine (0.5, 1.0, 1.5 and 2.0 μCi/well) were added to wells containing 2.5×10^4 Giardia lamblia trophozoites at 2 hour intervals so that it might remain in contact with the trophozoites for 2 to 24 hours. After 24 hours of incubation, the cells were harvested with a multimash cell harvester by washing vigorously with ice-cold Hank's Balanced Salt Solution. Samples were collected on Whatman glass microfiber paper. the paper was air dried, samples were placed in 7 ml scintillation vials and the incorporation of ^3 H-thymidine was determined by liquid scintillation counting. Mean values were calculated from 5 replicates for each time point and concentration.
One hundred μl of modified TYI-S-33 medium containing 2.5×10^4trophozoites was placed into each well of a 96-well U-bottom plate. The plates were incubated under anaerobic conditions for 24 hours. After 24 hours, the compounds to be tested were prepared from the 2 mM stock solutions and 100 μl each solution was added to yield concentrations of 1, 10, 100 and 1000 μMin the wells. Ten μl of a 150 μCi/ml solution of ^3 H-thymidine (SA=10 Ci/mmole) in modified TYI-S-33 was added 6 hours after the addition of drug to yield a final concentration of 1.5 μCi/well. After an additional 18 hours of incubation the cells were harvested. Five replicates were run for each drug concentration and the mean values determined. Non-specific binding of the ^3 H-thymidine to the microfiber paper was determined through the use of control wells to which no organisms were added. The activities of compounds tested were determined by comparing the incorporation of ^ 3 H-thymidine in the wells to which the compounds were added to that of wells of drug free controls. The drug concentration required to inhibit 50% incorporation of ^3 H-thymidine (IC50) was determined (Chou, 1974).

[2] = test system: Giardia lamblia Stock BRIS/82/HEPU/41; details: Table IV; Stock BRIS/82/HEPU/41 (Boreham et al., 1984); read-out: IC50 determined by 3H-thymidine incorporation; cited from earlier work
[3] = test system: Giardia lamblia Stock BRIS/83/HEPU/120; details: Table IV; Stock BRIS/83/HEPU/120 (Boreham et al., 1984); read-out: IC50 determined by 3H-thymidine incorporation; cited from earlier work
[4] = test system: Giardia lamblia Stock BRI/83/HEPU/136; details: Table IV; Stock BRI/83/HEPU/136 (Boreham et al., 1984); read-out: IC50 determined by 3H-thymidine incorporation; cited from earlier work
[5] = test system: Giardia lamblia Stock BRIS/83/HEPU/106; details: Table IV; Stock BRIS/83/HEPU/106 (Boreham et al., 1984); read-out: IC50 determined by 3H-thymidine incorporation; cited from earlier work
[6] = ATCC30957, Table I, 50% inhibition of 3H-thymidine incorporation, WB strain, 24 h with drug, read-out: IC50, Giardia lamblia vs. para-amidines
[7] = ATCC30957, read-out: IC50, Giardia lamblia vs. para-amidines
[8] = ATCC30957, Table II, 50% inhibition of 3H-thymidine incorporation, WB strain, 24 h with drug, read-out: IC50, Giardia lamblia vs. meta-amidines
[9] = ATCC30957, Table III, 50% inhibition of 3H-thymidine incorporation, WB strain, 24 h with drug, read-out: IC50, Giardia lamblia vs. para-imidazolines
[10] = ATCC30957, Table IV, Stock WB (ATCC 30957), read-out: IC50 determined by 3H-thymidine incorporation

Structure (SMILES): N=C(N)c1ccc(OCCOc2ccc(C(=N)N)cc2N)c(N)c1 [Example 1]
- IC50 [1, 6]: 1180 µM

Structure (SMILES): N=C(N)c1ccc(NCCNc2ccc(C(=N)N)cc2N)c(N)c1 [Example 2]
- IC50 [1, 6]: 744 µM

Structure (SMILES): N=C(N)c1ccc(OCCCOc2ccc(C(=N)N)cc2)cc1 [Example 3]
- IC50 [1, 6]: 12.3 µM

Structure (SMILES): N=C(N)c1ccc(OCCCOc2ccc(C(=N)N)cc2N)c(N)c1 [Example 4]
- IC50 [1, 6]: 15.4 µM

Structure (SMILES): COc1cc(C(=N)N)ccc1OCCCOc1ccc(C(=N)N)cc1OC [Example 5]
- IC50 [1, 6]: 3.2 µM

Structure (SMILES): N=C(N)c1ccc(NCCCNc2ccc(C(=N)N)cc2)cc1 [Example 6]
- IC50 [1, 6]: 68.2 µM

Structure (SMILES): N=C(N)c1ccc(NCCCNc2ccc(C(=N)N)cc2[N+](=O)[O-])c([N+](=O)[O-])c1 [Example 7]
- IC50 [1, 7]: 84.2 µM

Structure (SMILES): N=C(N)c1ccc(OCCCCOc2ccc(C(=N)N)cc2)cc1 [Example 8]
- IC50 [1, 6]: 61.6 µM

Structure (SMILES): N=C(N)c1ccc(OCCCCOc2ccc(C(=N)N)cc2N)c(N)c1 [Example 9]
- IC50 [1, 6]: 96.8 µM

Structure (SMILES): N=C(N)c1ccc(OCCCCOc2ccc(C(=N)N)cc2[N+](=O)[O-])c([N+](=O)[O-])c1 [Example 10]
- IC50 [1, 7]: 53.2 µM

Structure (SMILES): COc1cc(C(=N)N)ccc1OCCCCOc1ccc(C(=N)N)cc1OC [Example 11]
- IC50 [1, 6]: 68.8 µM

Structure (SMILES): N=C(N)c1ccc(OCCCCOc2ccc(C(=N)N)cc2Cl)c(Cl)c1 [Example 12]
- IC50 [1, 6]: 27.7 µM

Structure (SMILES): N=C(N)c1ccc(NCCCCNc2ccc(C(=N)N)cc2)cc1 [Example 13]
- IC50 [1, 6]: 50.7 µM

Structure (SMILES): N=C(N)c1ccc(NCCCCNc2ccc(C(=N)N)cc2N)c(N)c1 [Example 14]
- IC50 [1, 6]: 108 µM

Structure (SMILES): N=C(N)c1ccc(OCCCCCOc2ccc(C(=N)N)cc2)cc1 [Example 15, reference compound]
- IC50 [1, 7]: 76.5 µM
- efficacy against Giardia lamblia (in words) [1]: moderately effective

Structure (SMILES): N=C(N)c1ccc(OCCCCCOc2ccc(C(=N)N)cc2[N+](=O)[O-])c([N+](=O)[O-])c1 [Example 17]
- IC50 [1, 7]: 26.1 µM

Structure (SMILES): N=C(N)c1ccc(NCCCCCNc2ccc(C(=N)N)cc2[N+](=O)[O-])c([N+](=O)[O-])c1 [Example 22]
- IC50 [1, 7]: 29.9 µM

The next lines start with results.

- IC50 [1, 6]: 66.3 µM
Structure (SMILES): N=C(N)c1ccc(OCCCCCOc2ccc(C(=N)N)cc2N)c(N)c1 [Example 16]

- IC50 [1, 6]: 24 µM
Structure (SMILES): COc1cc(C(=N)N)ccc1OCCCCCOc1ccc(C(=N)N)cc1OC [Example 18]

- IC50 [1, 6]: 16.3 µM
Structure (SMILES): N=C(N)c1ccc(OCCCCCOc2ccc(C(=N)N)cc2Cl)c(Cl)c1 [Example 19]

- IC50 [1, 6]: 40.6 µM
Structure (SMILES): N=C(N)c1ccc(NCCCCCNc2ccc(C(=N)N)cc2)cc1 [Example 20]

- IC50 [1, 6]: 48.6 µM
Structure (SMILES): N=C(N)c1ccc(NCCCCCNc2ccc(C(=N)N)cc2N)c(N)c1 [Example 21]

- IC50 [1, 6]: 34.3 µM
Structure (SMILES): N=C(N)c1ccc(OCCCCCCOc2ccc(C(=N)N)cc2)cc1 [Example 23]

- IC50 [1, 6]: 38.7 µM
Structure (SMILES): N=C(N)c1ccc(OCCCCCCOc2ccc(C(=N)N)cc2N)c(N)c1 [Example 24]

- IC50 [1, 6]: 4.2 µM
Structure (SMILES): N=C(N)c1ccc(NCCCCCCNc2ccc(C(=N)N)cc2)cc1 [Example 25]

- IC50 [1, 6]: 21.9 µM
Structure (SMILES): N=C(N)c1ccc(NCCCCCCNc2ccc(C(=N)N)cc2N)c(N)c1 [Example 26]

- IC50 [1, 8]: 560 µM
Structure (SMILES): N=C(N)c1cccc(OCCCOc2cccc(C(=N)N)c2)c1 [Example 27]

- IC50 [1, 8]: 106 µM
Structure (SMILES): N=C(N)c1cccc(OCCCCOc2cccc(C(=N)N)c2)c1 [Example 28]

- IC50 [1, 8]: 55.8 µM
Structure (SMILES): N=C(N)c1cccc(OCCCCCOc2cccc(C(=N)N)c2)c1 [Example 29]

- IC50 [1, 8]: 84.2 µM
Structure (SMILES): N=C(N)c1cccc(OCCCCCCOc2cccc(C(=N)N)c2)c1 [Example 30]

- IC50 [1, 9]: 25.4 µM
Structure (SMILES): COc1cc(C2=NCCN2)ccc1OCCCOc1ccc(C2=NCCN2)cc1OC [Example 31]
- efficacy against Giardia lamblia (in words) [1]: slightly less efficacious than the amidine counterpart of Example 5

- IC50 [1, 9]: 26 µM
Structure (SMILES): c1cc(C2=NCCN2)ccc1OCCCCOc1ccc(C2=NCCN2)cc1 [Example 32]

- IC50 [1, 9]: 346 µM
Structure (SMILES): CN1CCN=C1c1ccc(OCCCCOc2ccc(C3=NCCN3C)cc2)cc1 [Example 33]

- IC50 [1, 9]: 39.2 µM
Structure (SMILES): c1cc(C2=NCCN2)ccc1OCCCCCOc1ccc(C2=NCCN2)cc1 [Example 34]

- IC50 [1, 9]: 373 µM
Structure (SMILES): CN1CCN=C1c1ccc(OCCCCCOc2ccc(C3=NCCN3C)cc2)cc1 [Example 35]

- IC50 [1, 9]: 47.1 µM
Structure (SMILES): COc1cc(C2=NCCN2)ccc1OCCCCCOc1ccc(C2=NCCN2)cc1OC [Example 36]

- IC50 [1, 10]: 1.9 µM
Structure (SMILES): O=C1OCCN1N=Cc1ccc([N+](=O)[O-])o1 [Furazolidone]
- IC50 [2]: 0.6 µM
- IC50 [3]: 2.5 µM
- IC50 [4]: 0.43 µM
- IC50 [5]: 0.74 µM

- IC50 [1, 10]: 3.65 µM
Structure (SMILES): Cc1ncc([N+](=O)[O-])n1CCO [Metronidazole]
- IC50 [2]: 2.14 µM
- IC50 [3]: 1.08 µM
- IC50 [4]: 2.21 µM
- IC50 [5]: 0.91 µM

- IC50 [1, 10]: 1.41 µM
Structure (SMILES): CCN(CC)CCCC(C)Nc1c2ccc(Cl)cc2nc2ccc(OC)cc12 (centres unmarked) [Quinacrine . HCl]
- IC50 [2]: 1.09 µM
- IC50 [3]: 1.59 µM
- IC50 [4]: 4.02 µM
- IC50 [5]: 1.18 µM
